Earlier results, collected in patent US11297852B2, “Method for treatment or prevention of gill disease” (NUTRECO IP ASSETS B.V., priority 2015, dated 2022).
Read-outs that look alike come from different tables or passages of the source.

Key:
AGD [1] = conditions: in feed at 25 mg/kg
AGD [2] = conditions: oral administration two weeks prior to challenge
[3] = Atlantic salmon
amoebae = conditions: in vitro bath treatment at 10 mg/l, used individually
P. perurans = conditions: in feed
AGD [4] = conditions: oral supplementation
[5] = 7 days after P. perurans challenge

Compound	amoebae numbers (amoebae)	percent of lamella with lesions compared to control fed fish (P. perurans; 14 and 21 days after challenge)	percent of lamella with lesions compared to control fed fish (P. perurans; [5])	also measured
Oc1c(Cl)cc(Cl)cc1Sc1cc(Cl)cc(Cl)c1O [Bithionol]	–	–	–	AGD associated lesions (AGD [1]): delay and reduction in intensity
CCOC(=O)[C@@H](N)CS [LCEE, L-cysteine ethyl ester]	–	–	–	progression of AGD associated gill pathology (AGD [2]): significantly delayed the progression; mucus viscosity [3]: reduce mucus viscosity
CC[C@@H](C(=O)[C@@H](C)[C@@H](O)[C@H](C)CCc1ccc(C)c(O)c1C(=O)O)[C@H]1O[C@](CC)([C@H]2CC[C@](O)(CC)[C@H](C)O2)C[C@@H]1C [Lasalocid acid]	significantly reduced amoebae numbers	no difference	reduced the percent of lamella with lesions	–
CO[C@@H]1[C@@H](OC)[C@H](C)[C@@](O)(CC(=O)O)O[C@H]1[C@H](C)[C@H]1O[C@@]2(CC[C@@](C)([C@H]3CC[C@@](C)([C@@H]4O[C@@H]([C@H]5O[C@](C)(O)[C@H](C)C[C@@H]5C)C[C@@H]4O[C@@H]4C[C@H](OC)[C@@H](OC)[C@H](C)O4)O3)O2)C[C@H](O)[C@H]1C [Maduramycin]	significantly reduced amoebae numbers	no difference	reduced the percent of lamella with lesions	–
CC[C@@H](C(=O)[C@@H](C)[C@@H](O)[C@H](C)[C@@H]1O[C@@H]([C@@H](CC)C(=O)O)CC[C@@H]1C)[C@H]1O[C@]2(C=C[C@@H](O)[C@]3(CC[C@@](C)([C@H]4CC[C@](O)(CC)[C@H](C)O4)O3)O2)[C@H](C)C[C@@H]1C [Salinomycin]	significantly reduced amoebae numbers	no difference	reduced the percent of lamella with lesions	–
c1ccc([C@H]2CN3CCSC3=N2)cc1 [levamisole]	–	–	–	impact on mortality levels (AGD [4]): no significant impact
glucans	–	–	–	impact on mortality levels (AGD [4]): no significant impact
